Measured values published in PMC2834671, “Differential activity of innate defense antimicrobial peptides against Nocardia species” (BMC Microbiology, 2010).
Positions of bridges follow the written chain, without caps; N, C: chain ends. Residues, ends and D or L forms follow the SMILES beside them. No end group written: not given here.

Legend:
N. farcinica ATCC 3318 = test: Colony forming unit (CFU) assay against N. farcinica; type: cell-based, Nocardia farcinica; conditions: for LD90: lowest concentration leading to 90% reduction of CFU, 1 × 10^7 CFU/ml in 10 mM sodium phosphate buffer pH 7.4 + 1% MHB, means of at least four (levofloxacin, HNP 1-3, LL-37, hBD-3) or two (indolicidin, LAP, TAP) independent experiments
Method: (§1) Four strains of the genus Nocardia were investigated: Nocardia farcinica (ATCC 3318), Nocardia nova (ATCC 33726), Nocardia asteroides (ATCC 19247) and Nocardia brasiliensis (ATCC 19296). Strains were grown on Columbia blood agar for at least 72 hours at 37°C. Then 30 ml of Mueller-Hinton-broth (MHB) supplemented with 1% Tween 80 (Serva, Heidelberg, Germany) was inoculated with one loop of bacteria scraped off the agar plates. MHB was incubated in a shake incubator (220 rpm at 37°C). 10 ml of the culture was transferred to a 50 ml tube which contained 1 mm glass beads (BioSpec Products, Bartlesville, USA). After vortexing for 10-15 seconds a homogenous suspension could be gained. A few millilitres of the suspension were used to inoculate another 50 ml of MHB (also supplemented with 1% Tween 80). Cultures were incubated until mid-logarithmic phase was reached. Incubation times were different for each Nocardia species (N. farcinica 12 h, N. nova 24 h, N. asteroides 16 h, N. brasiliensis 72 h).
(§2) A colony forming unit (CFU) assay was established and performed to test AMP susceptibility. Mid-logarithmic growth phase cultures were washed twice in 10 mM sodium phosphate buffer (ph 7.4). A standard inoculum of 1 × 10^7CFU/ml in 10 mM sodium phosphate buffer supplemented with 1% MHB was prepared. 80 μl of the standard inoculum were incubated with 20 μl of the respective concentrations of the antimicrobial agents in the shake incubator at 37°C for 12 h (N. farcinica) to 16 h (N. nova, N. asteroides and N. brasiliensis). Incubation was carried out in 2 ml tubes (Eppendorf, Hamburg, Germany) which were occluded by LidBacs (Eppendorf, Hamburg, Germany) to avoid contamination and provide constant aerobic conditions. After incubation serial dilutions were plated on Mueller-Hinton agar plates and visible colonies were counted after 48-72 hours of incubation at 37°C. Killing was expressed in percentage of bacteria that were killed by incubation with respective peptide concentrations compared to incubation with solvent of the antibacterial substance (0,01% acetic acid or water). LD90 denotes the lowest peptide concentration leading to a =90% reduction of CFU counts. […] Killing activity (CFU counts after incubation with solvent vs. CFU counts after incubation with highest concentration of AMPs or levofloxacin) was analysed by Student's t-test. A p-value < 0.05 was considered significant.

N. nova ATCC 33726 = test: Colony forming unit (CFU) assay against N. nova; type: cell-based, Nocardia nova; conditions: for antinocardial activity (in words): CFU assay; for antinocardial activity (in words) / LD90: 16 h; for LD90: lowest concentration leading to 90% reduction of CFU, 1 × 10^7 CFU/ml in 10 mM sodium phosphate buffer pH 7.4 + 1% MHB, 37°C, means of at least four or two (indolicidin) independent experiments; for killing/CFU reduction in percent ± SD: ATCC 33726, 16 h
Method: as §1, §2

N. asteroides ATCC 19247 = test: Colony forming unit (CFU) assay against N. asteroides; type: cell-based, Nocardia asteroides; conditions: for antinocardial activity (in words): CFU assay; for LD90: lowest concentration leading to 90% reduction of CFU, 1 × 10^7 CFU/ml in 10 mM sodium phosphate buffer pH 7.4 + 1% MHB, means of at least four or two (indolicidin) independent experiments
Method: as §1, §2

[1] = tested on: N. brasiliensis ATCC 19296; test: Colony forming unit (CFU) assay against N. brasiliensis; type: cell-based, Nocardia brasiliensis; conditions: for antinocardial activity (in words) / growth of N. brasiliensis after incubation (in words): CFU assay; for antinocardial activity (in words): concentrations up to 64 μg/ml; for growth of N. brasiliensis after incubation (in words): data not shown; for LD90: lowest concentration leading to 90% reduction of CFU, 1 × 10^7 CFU/ml in 10 mM sodium phosphate buffer pH 7.4 + 1% MHB, means of at least four or two (indolicidin, LAP, TAP) independent experiments
Method: as §1, §2

[2] = at the LD90 concentration, 12 h, 37°C, mean ± SD of at least four or two (indolicidin, LAP, TAP) independent experiments
[3] = at the LD90 concentration, 16 h, 37°C, mean ± SD of at least four or two (indolicidin) independent experiments

Compound	CFU reduction (N. farcinica ATCC 3318; 16 μg/ml peptide alone, single assay (Figure 2)) [%]	antinocardial activity (in words) (N. nova ATCC 33726)	LD90 (N. nova ATCC 33726) [µg/mL]	antinocardial activity (in words) (N. asteroides ATCC 19247; 16 h)	LD90 (N. asteroides ATCC 19247; 37°C, 16 h) [µg/mL]	antinocardial activity (in words) ([1]; 16 h)	growth of N. brasiliensis after incubation (in words) ([1]; 16 h)	LD90 ([1]; 37°C, 16 h) [µg/mL]	antinocardial activity (in words) (N. farcinica ATCC 3318; CFU assay, 12 h)	killing/CFU reduction in percent ± SD (N. farcinica ATCC 3318; [2]) [%]	LD90 (N. farcinica ATCC 3318; 37°C, 12 h) [µg/mL]	killing/CFU reduction in percent ± SD (N. asteroides ATCC 19247; [3]) [%]	killing/CFU reduction in percent ± SD [1, 3] [%]	killing/CFU reduction in percent ± SD (N. farcinica ATCC 3318; ATCC 3318, 12 h) [%]	killing/CFU reduction in percent ± SD (N. nova ATCC 33726) [%]	killing/CFU reduction in percent ± SD (N. asteroides ATCC 19247; ATCC 19247, 16 h) [%]	killing/CFU reduction in percent ± SD ([1]; ATCC 19296, 16 h) [%]
CC[C@H](C)[C@H](NC(=O)[C@H](CCCCN)NC(=O)[C@H](CCC(=O)O)NC(=O)[C@H](CCCCN)NC(=O)[C@H](CO)NC(=O)[C@H](CCCCN)NC(=O)[C@H](CCCNC(=N)N)NC(=O)[C@H](Cc1ccccc1)NC(=O)[C@H](Cc1ccccc1)NC(=O)[C@H](CC(=O)O)NC(=O)CNC(=O)[C@H](CC(C)C)NC(=O)[C@@H](N)CC(C)C)C(=O)NCC(=O)N[C@@H](CCCCN)C(=O)N[C@@H](CCC(=O)O)C(=O)N[C@@H](Cc1ccccc1)C(=O)N[C@@H](CCCCN)C(=O)N[C@@H](CCCNC(=N)N)C(=O)N[C@H](C(=O)N[C@H](C(=O)N[C@@H](CCC(N)=O)C(=O)N[C@@H](CCCNC(=N)N)C(=O)N[C@H](C(=O)N[C@@H](CCCCN)C(=O)N[C@@H](CC(=O)O)C(=O)N[C@@H](Cc1ccccc1)C(=O)N[C@@H](CC(C)C)C(=O)N[C@@H](CCCNC(=N)N)C(=O)N[C@@H](CC(N)=O)C(=O)N[C@@H](CC(C)C)C(=O)N[C@H](C(=O)N1CCC[C@H]1C(=O)N[C@@H](CCCNC(=N)N)C(=O)N[C@H](C(=O)N[C@@H](CCC(=O)O)C(=O)N[C@@H](CO)C(=O)O)[C@@H](C)O)C(C)C)[C@@H](C)CC)C(C)C)[C@@H](C)CC [LL-37]	68.5	more potent against N. nova than levofloxacin	32	did not show antinocardial activity	>64	resistant	stronger growth	>64									
C[C@H]1COc2c(N3CCN(C)CC3)c(F)cc3c(=O)c(C(=O)O)cn1c23 [Levofloxacin, reference compound]		dose-dependent activity	>32	dose-dependent activity	8	dose-dependent activity		32	dose-dependent activity	92.3 ± 3.8	8	92.6 ± 3.8	96.6 ± 2.2				
CC[C@H](C)[C@@H]1NC(=O)CNC(=O)[C@H](CCCCN)NC(=O)[C@H](CC(N)=O)NC(=O)[C@H](CCCNC(=N)N)NC(=O)[C@H](C(C)C)NC(=O)[C@@H](NC(=O)[C@H](CO)NC(=O)[C@@H](NC(=O)[C@@H]2CCCN2C(=O)[C@@H](N)CC(N)=O)C(C)C)CSSC[C@@H]2NC(=O)[C@H](CCCCN)NC(=O)[C@H](C(C)C)NC(=O)[C@H](C)NC(=O)[C@H](CCCNC(=N)N)NC(=O)CNC(=O)[C@H](C(C)C)NC(=O)[C@@H]3CSSC[C@H](NC1=O)C(=O)N[C@@H](C(C)C)C(=O)N1CCC[C@H]1C(=O)N[C@@H]([C@@H](C)CC)C(=O)N[C@@H](CCCNC(=N)N)C(=O)N[C@@H](CSSC[C@@H](C(=O)N[C@@H](CCCNC(=N)N)C(=O)N[C@@H](CCCCN)C(=O)N[C@@H](CCCCN)C(=O)O)NC2=O)C(=O)N1CCC[C@H]1C(=O)NCC(=O)N[C@@H](CO)C(=O)N[C@@H](CCSC)C(=O)N[C@@H](CCCCN)C(=O)N[C@@H](CCC(N)=O)C(=O)N[C@@H]([C@@H](C)CC)C(=O)NCC(=O)N[C@@H]([C@@H](C)O)C(=O)N3 [TAP] (H-NPVSCVRNKGICVPIRCPGSMKQIGTCVGRAVKCCRKK-OH; disulfide 5-34, 12-27, 17-35 (inferred); N-terminus and C-terminus assumed)						resistant	pronounced growth			94 ± 5.1	32						
CC[C@H](C)[C@H](N)C(=O)N[C@@H](CC(C)C)C(=O)N1CCC[C@H]1C(=O)N[C@@H](Cc1c[nH]c2ccccc12)C(=O)N[C@@H](CCCCN)C(=O)N[C@@H](Cc1c[nH]c2ccccc12)C(=O)N1CCC[C@H]1C(=O)N[C@@H](Cc1c[nH]c2ccccc12)C(=O)N[C@@H](Cc1c[nH]c2ccccc12)C(=O)N1CCC[C@H]1C(=O)N[C@@H](Cc1c[nH]c2ccccc12)C(=O)N[C@@H](CCCNC(=N)N)C(=O)N[C@@H](CCCNC(=N)N)C(N)=O [indolicidin]			8		64			64			16			96.7 ± 1.7	90.5 ± 3.4	99.1 ± 0.6	92.9 ± 2.1
GIINTLQKYYCRVRGGRCAVLSCLPKEEQIGKCSTRGRKCCRRKK (disulfide 11-40, 18-33, 23-41 (inferred)) [hBD-3]		more potent against N. nova than levofloxacin	16	did not show antinocardial activity	>64	resistant	stronger growth	>64			16			92.5 ± 5.3	95.2 ± 1.7		
LAP: bovine β-defensin lingual antimicrobial peptide, synthesized and oxidatively folded (VRNSQSCRRNKGICVPIRCPGSMRQIGTCLGAQVKCCRRK; disulfide (positions not given here); UniProt Q28880 25-64, looked up)						resistant	pronounced growth	>64		92.9 ± 7.1	16						
